Key:
[1] = tested on: WIL2-NS (Non-Cancerous); assay: combination Emax (second highest fraction inhibited in the dose matrix, 72 h); higher = more inhibition; extreme values may be limits of the assay
Method in brief: (§1)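 Cell lines grown in DMEM/F12 or RPMI with 10% FBS were plated in 1536-well plates and held 24 hours at 37°C, 5% CO2 before 72 hours of exposure to two-drug dose matrices, with DMSO typically at 0.2%. CellTiter-Glo 2.0 luminescence gave viability, which was converted to inhibition. Vehicle wells were set to 0 and blank wells to 1. Combination Emax is the second-highest inhibition in the matrix, and Bliss excess is the observed combination effect minus the expected EA + EB − EA·EB, where EA and EB are the single-agent effects.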

[2] = tested on: GR-ST (B-Lymphoblastic Leukemia); assay: as above
Method in brief: as §1

[3] = tested on: BFTC-905 (Bladder Carcinoma); assay: as above
Method in brief: as §1

[4] = tested on: CAMA-1 (Breast Carcinoma); assay: as above
Method in brief: as §1

[5] = tested on: SR (Other Blood Carcinomas); assay: as above
Method in brief: as §1

[6] = tested on: SW1417 (Colorectal Carcinoma); assay: as above
Method in brief: as §1

[7] = tested on: SW837 (Colorectal Carcinoma); assay: as above
Method in brief: as §1

[8] = tested on: NCI-H1792 (Lung Adenocarcinoma); assay: as above
Method in brief: as §1

[9] = tested on: ES1 (Ewing's Sarcoma); assay: as above
Method in brief: as §1

[10] = tested on: L-540 (Hodgkin's Lymphoma); assay: as above
Method in brief: as §1

[11] = tested on: DND-41 (T-Lymphoblastic Leukemia); assay: as above
Method in brief: as §1

[12] = tested on: NCI-H2818 (Mesothelioma); assay: as above
Method in brief: as §1

[13] = tested on: K-562 (Chronic Myelogenous Leukemia); assay: as above
Method in brief: as §1

[14] = tested on: BL-41 (Burkitt's Lymphoma); assay: as above
Method in brief: as §1

[15] = tested on: ES8 (Ewing's Sarcoma); assay: as above
Method in brief: as §1

[16] = tested on: WM-115 (Melanoma); assay: as above
Method in brief: as §1

[17] = tested on: MKN28 (Gastric Carcinoma); assay: as above
Method in brief: as §1

[18] = tested on: WIL2-NS (Non-Cancerous); assay: Bliss excess, mean over the matrix (fraction); higher = more synergy
Method in brief: as §1

[19] = tested on: GR-ST (B-Lymphoblastic Leukemia); assay: as above
Method in brief: as §1

[20] = tested on: BFTC-905 (Bladder Carcinoma); assay: as above
Method in brief: as §1

[21] = tested on: CAMA-1 (Breast Carcinoma); assay: as above
Method in brief: as §1

[22] = tested on: SR (Other Blood Carcinomas); assay: as above
Method in brief: as §1

[23] = tested on: SW1417 (Colorectal Carcinoma); assay: as above
Method in brief: as §1

[24] = tested on: SW837 (Colorectal Carcinoma); assay: as above
Method in brief: as §1

[25] = tested on: NCI-H1792 (Lung Adenocarcinoma); assay: as above
Method in brief: as §1

[26] = tested on: ES1 (Ewing's Sarcoma); assay: as above
Method in brief: as §1

[27] = tested on: L-540 (Hodgkin's Lymphoma); assay: as above
Method in brief: as §1

[28] = tested on: DND-41 (T-Lymphoblastic Leukemia); assay: as above
Method in brief: as §1

[29] = tested on: NCI-H2818 (Mesothelioma); assay: as above
Method in brief: as §1

[30] = tested on: K-562 (Chronic Myelogenous Leukemia); assay: as above
Method in brief: as §1

[31] = tested on: BL-41 (Burkitt's Lymphoma); assay: as above
Method in brief: as §1

[32] = tested on: ES8 (Ewing's Sarcoma); assay: as above
Method in brief: as §1

[33] = tested on: WM-115 (Melanoma); assay: as above
Method in brief: as §1

[34] = tested on: MKN28 (Gastric Carcinoma); assay: as above
Method in brief: as §1
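Wherever Bliss excess, mean over the matrix is given: after 72 h of two-drug dosing.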

SMILES	combination Emax [1]	combination Emax [2]	combination Emax [3]	combination Emax [4]	combination Emax [5]	combination Emax [6]	combination Emax [7]	combination Emax [8]	combination Emax [9]	combination Emax [10]	combination Emax [11]	combination Emax [12]	combination Emax [13]	combination Emax [14]	combination Emax [15]	combination Emax [16]	combination Emax [17]	Bliss excess [18]	Bliss excess [19]	Bliss excess [20]	Bliss excess [21]	Bliss excess [22]	Bliss excess [23]	Bliss excess [24]	Bliss excess [25]	Bliss excess [26]	Bliss excess [27]	Bliss excess [28]	Bliss excess [29]	Bliss excess [30]	Bliss excess [31]	Bliss excess [32]	Bliss excess [33]	Bliss excess [34]
C=CCn1c(=O)c2cnc(Nc3ccc(N4CCN(C)CC4)cc3)nc2n1-c1cccc(C(C)(C)O)n1 [AZD1775] + CCc1c2c(nc3ccc(O)cc13)-c1cc3c(c(=O)n1C2)COC(=O)[C@]3(O)CC [SN-38] (first compound max 1 µM, partner max 0.3 µM)	0.961	0.825	0.946	0.466	1	0.793	0.703	0.755	1	0.953	0.983	0.399	0.953	1	1	0.416	0.689	-0.0755	-0.0824	-0.0133	0.0473	0.0049	-0.0298	-0.0222	-0.0124	-0.0144	-0.0458	-0.0446	-0.063	0.0873	-0.0252	-0.0145	-0.0252	0.0317
C=CCn1c(=O)c2cnc(Nc3ccc(N4CCN(C)CC4)cc3)nc2n1-c1cccc(C(C)(C)O)n1 [AZD1775] + Nc1ccn([C@@H]2O[C@H](CO)[C@@H](O)C2(F)F)c(=O)n1 [Gemcitabine] (first compound max 1 µM, partner max 0.3 µM)	0.973	0.855	0.836	0.534	1	0.663	0.691	0.878	1	0.968	0.943	0.44	0.869	1	1	0.459	0.552	0.0149	-0.0072	-0.0015	0.0354	0.0344	0.0353	0.0269	-0.0287	0.0471	0.0052	0.0256	-0.0333	0.0554	-0.0067	0.0248	0.0368	0.0781
CN(CCO)CC[C@H](CSc1ccccc1)Nc1ccc(S(=O)(=O)NC(=O)c2ccc(N3CCC([C@@H](O)c4ccccc4-c4ccc(Cl)cc4)CC3)cc2)cc1S(=O)(=O)C(F)(F)F [AZD4320] + CC(=O)O[C@H]1C(=O)[C@@]2(C)[C@H]([C@H](OC(=O)c3ccccc3)[C@]3(O)C[C@H](OC(=O)[C@H](O)[C@@H](NC(=O)c4ccccc4)c4ccccc4)C(C)=C1C3(C)C)[C@]1(OC(C)=O)CO[C@@H]1C[C@@H]2O [Paclitaxel] (first compound max 1 µM, 7x7, partner max 3 µM)	0.942	0.839	0.989	0.843	1	0.864	0.878	0.986	0.984	0.974	1	0.745	0.981	1	1	0.851	0.738	-0.0331	-0.0651	0.0384	0.119	0.0061	0.0037	0.0777	0.0049	-0.0272	0.0162	0.187	0.0844	-0.0181	-0.0222	0.0317	0.0811	0.0942
CN(CCO)CC[C@H](CSc1ccccc1)Nc1ccc(S(=O)(=O)NC(=O)c2ccc(N3CCC([C@@H](O)c4ccccc4-c4ccc(Cl)cc4)CC3)cc2)cc1S(=O)(=O)C(F)(F)F [AZD4320] + CS(=O)(=O)CCNCc1ccc(-c2ccc3ncnc(Nc4ccc(OCc5cccc(F)c5)c(Cl)c4)c3c2)o1 [Lapatinib] (first compound max 1 µM, 7x7, partner max 10 µM)	0.258	0.961	0.529	0.36	0.777	0.934	0.942	0.546	0.923	0.905	1	0.407	0.552	0.97	0.956	0.909	0.693	-0.0018	-0.0086	0.034	0.0048	0.0765	0.0238	0.0547	-0.0553	-0.0147	0.137	0.0603	-0.0332	-0.03	-0.0006	0.121	0.0604	-0.0128

Reference: the supplement of paper PMC11061612
